Test systems include Escherichia coli HB101; Salmonella typhimurium; Pseudomonas aeruginosa; Bacillus subtilis; Candida krusei ATCC 6258; Candida glabrata; Candida tropicalis; Candida parapsilosis; Candida albicans SC5314; Candida albicans; Acinetobacter baumannii; Streptococcus agalactiae; Enterococcus faecium; Escherichia coli AB94012.
What all share (experiment): ≥ marks a high value that may be exact or a test limit, other limits are often not marked, values filed in µg/mL are converted to µM
Assay [1] has as its system Staphylococcus aureus ATCC 6538.
Assay [2] has as its system Escherichia coli ATCC 2592.
The subject of assay [3] is Micrococcus luteus ATCC 9341.
The subject of assay [4] is Candida albicans ATCC 36232.
Assay [5] deals with Staphylococcus aureus 1550.
In assay [6] the test system is Pseudomonas aeruginosa ATCC 9027.
Assay [7] relates to Streptococcus sobrinus ATCC 6715.
Assay [8] has as its system Streptococcus sanguinis ATCC 10556.
For assay [9], the system named is Streptococcus mutans UA159.
Assay [10] concerns Candida tropicalis ATCC 13803.
The test system of assay [11] is Candida glabrata ATCC 15126.
Assay [12] relates to Candida parapsilosis ATCC 22019.
The test system of assay [13] is Listeria monocytogenes KCTC 3710.
Assay [14] relates to Staphylococcus aureus AB208193.
Assay [15] deals with Staphylococcus aureus P1381.
In assay [16] the test system is Pseudomonas aeruginosa 671973.
For assay [17], the system named is Acinetobacter baumannii KCTC 2508.
In assay [18] the test system is Staphylococcus epidermidis AB208188.
For assay [19], the system named is Staphylococcus aureus P1374.
The test system of assay [20] is Staphylococcus aureus AB94004.
For assay [21], the system named is Staphylococcus epidermidis AB208187.
Assay [22] has as its system Bacillus cereus KCTC 1012.
Assay [23] concerns Staphylococcus aureus ATCC 25923.
Assay [24] has as its system Pseudomonas aeruginosa 5018.
Assay [25] relates to Pseudomonas aeruginosa 3592.
The subject of assay [26] is Pseudomonas aeruginosa AB93066.
Assay [27] relates to Klebsiella pneumoniae KCTC 2208.
Assay [28] has as its system Pseudomonas aeruginosa 4007.
Assay [29] concerns Staphylococcus aureus ATCC 29213.
Assay [30] has as its system Micrococcus luteus AB93113.
Assay [31] concerns Acinetobacter baumannii ATCC 19606.
Assay [32] concerns Bacillus subtilis AB91021.
Assay [33] deals with Salmonella enterica subsp. enterica serovar Typhimurium ATCC 14028.

≈ marks a conversion by molar mass, not a printed value. Where “and” joins values, the source holds several entries; their conditions need not be identical. Equal values may be shown once.

A word on the MIC: it is the smallest concentration in the dilution series that meets the test's criterion for growth inhibition. Low readings indicate greater potency, high ones weaker potency.

Turning to `CC(C)[C@H](NC(=O)[C@H](CCCCN)NC(=O)[C@H](CCCCN)NC(=O)[C@H](CCCCN)NC(=O)[C@H](CCCCN)NC(=O)[C@H](CCCCN)NC(=O)[C@@H](NC(=O)[C@@H](NC(=O)[C@@H](N)Cc1ccccc1)C(C)C)C(C)C)C(=O)N[C@@H](Cc1ccccc1)C(=O)O` [FVVKKKKKVF], the minimum inhibitory concentration (MIC) is above 80 µM in assay [1]; at least 80 µM in [2]; at least 80 µM in assay [3]; at least 80 µM in [4]; at least 80 µM in assay [5]; above 80 µM in assay [6].
As for `CC(C)[C@H](NC(=O)[C@H](CCCCN)NC(=O)[C@H](CCCCN)NC(=O)[C@H](C)NC(=O)[C@H](CCCCN)NC(=O)[C@H](CCCCN)NC(=O)[C@H](Cc1ccccc1)NC(=O)[C@H](Cc1ccccc1)NC(=O)[C@H](CCCCN)NC(=O)[C@H](CCCCN)NC(=O)[C@H](Cc1c[nH]c2ccccc12)NC(=O)CN)C(=O)N[C@@H](Cc1c[nH]c2ccccc12)C(=O)N[C@@H](CCCCN)C(=O)O` [GWKKFFKKAKKVWK], the results for the MIC in assay [7], in assay [8] and in [9] were at least 141 µM, at least 141 µM and at least 70.7 µM, respectively.
As for `CC[C@H](C)[C@H](NC(=O)[C@@H](NC(=O)[C@@H]1CCCN1C(=O)[C@@H](NC(=O)[C@@H]1CCCN1C(=O)[C@H](CCCCN)NC(=O)[C@H](CCCCN)NC(=O)[C@H](CO)NC(=O)CN)C(C)C)[C@@H](C)CC)C(=O)N[C@@H](Cc1ccc(O)cc1)C(=O)N[C@H]1CSSC[C@@H](C(=O)N[C@@H](CCC(N)=O)C(=O)N[C@@H](CCCN=C(N)N)C(=O)N[C@@H](CCSC)C(=O)O)NC(=O)[C@H](CCCCN)NC(=O)CNC(=O)[C@H]([C@@H](C)O)NC(=O)[C@H](C)NC(=O)[C@H](C)NC(=O)[C@H](CCCN=C(N)N)NC(=O)[C@H](CCCN=C(N)N)NC(=O)[C@H](CC(N)=O)NC1=O` [GSKKPVPIIYCNRRAATGKCQRM], the MIC with Escherichia coli HB101 was found to be 2.6 µM (≈ 6.7 µg/mL); with Salmonella typhimurium it was 2.6 µM (≈ 6.7 µg/mL); in the assay with Pseudomonas aeruginosa it was 7.35 µM (≈ 18.9 µg/mL); in the assay with Bacillus subtilis, 20.8 µM (≈ 53.6 µg/mL).
Turning to `CC(C)C[C@H](NC(=O)[C@H](CC(C)C)NC(=O)[C@H](Cc1ccc(O)cc1)NC(=O)[C@H](CCCCN)NC(=O)[C@@H](N)CS)C(=O)N[C@@H](CCCCN)C(=O)N[C@@H](Cc1c[nH]c2ccccc12)C(=O)N[C@@H](CCCN=C(N)N)C(=O)O` [CKYLLKWR], the MIC against Candida krusei ATCC 6258 is 22.5 µM (≈ 25 µg/mL); in the assay with Candida glabrata, at least 45.1 µM; in the assay with Candida tropicalis, 11.3 µM (≈ 12.5 µg/mL); against Candida parapsilosis, 31.9 µM (≈ 35.4 µg/mL); in assay [10], 11.3 µM (≈ 12.5 µg/mL); in [11] it was 22.5 µM (≈ 25 µg/mL). The MIC is at least 45.1 µM in [12], 22.5 µM (≈ 25 µg/mL) in the assay on Candida albicans SC5314 and 63.7 µM (≈ 70.7 µg/mL) against Candida albicans.
For the compound `CC[C@H](C)[C@H](NC(=O)CN)C(=O)N[C@@H](CC(C)C)C(=O)NCC(=O)N[C@@H](CCCCN)C(=O)N[C@@H](CC(C)C)C(=O)N[C@@H](Cc1c[nH]c2ccccc12)C(=O)N[C@@H](CCC(=O)O)C(=O)NCC(=O)N[C@H](C(=O)N[C@@H](CCCCN)C(=O)N[C@@H](CO)C(=O)N[C@H](C(=O)N[C@@H](Cc1ccccc1)C(N)=O)[C@@H](C)CC)C(C)C` [GILGKLWEGVKSIF], the MIC was 3.13 µM (≈ 4.84 µg/mL) in assay [13]; 8.08 µM (≈ 12.5 µg/mL) in assay [14]; 8.08 µM (≈ 12.5 µg/mL) in assay [15]; 3.13 µM (≈ 4.84 µg/mL) in assay [16]; 3.13 µM and 6.25 µM in [17]; 4.14 µM and 3.13 µM and 6.25 µM with Acinetobacter baumannii. Further, the MIC amounted to 16.2 µM (≈ 25 µg/mL) in the assay with Streptococcus agalactiae; 8.08 µM (≈ 12.5 µg/mL) in assay [1]; 16.2 µM (≈ 25 µg/mL) in assay [18]; 16.2 µM (≈ 25 µg/mL) in assay [19]; 8.08 µM (≈ 12.5 µg/mL) in assay [20]; 16.2 µM (≈ 25 µg/mL) in [21]. In addition, the MIC in [22] was 12.5 µM (≈ 19.3 µg/mL); in assay [23], 4.04 µM and 3.13 µM; in [24], 12.5 µM (≈ 19.3 µg/mL); in the assay with Enterococcus faecium, 8.08 µM (≈ 12.5 µg/mL); in assay [25], 6.25 µM (≈ 9.66 µg/mL); in assay [26], at least 64.6 µM. The MIC in assay [27] was 12.5 µM (≈ 19.3 µg/mL); in assay [28], 25 µM (≈ 38.6 µg/mL); in assay [29], 6.25 µM (≈ 9.66 µg/mL); in the assay with Escherichia coli AB94012 it was at least 64.6 µM; in [30] it was 8.08 µM (≈ 12.5 µg/mL); in assay [31], 3.23 µM (≈ 5 µg/mL). Also, the results for the MIC in assay [32], in [33] and in assay [6] were 8.08 µM (≈ 12.5 µg/mL), 3.13 µM (≈ 4.84 µg/mL) and above 64.6 µM, respectively.

The record behind these values is DBAASP.
